In patent publication US6649797B2, “Compounds and methods of use to treat infectious diseases” (The Picower Institute for Medical Research, priority 1996, dated 2003):
“And” between values parts separate entries of the source, which are not always exact repeats. Equal values may be shown once. Read-outs that look alike come from different tables or passages of the source.

Columns and labels:
HIV-1 RT = HIV-1 RT (Human immunodeficiency virus type 1 group M subtype B, UniProt P04585); test: Enzymatic activity of HIV-1 RT in vitro; format: biochemical
[1] = Pharmacokinetics in mice (plasma, HPLC); format: in vivo, mouse; conditions: for AUC / Cmax / bioavailability / Tmax / A (zero time intercept of the distribution phase) / B (zero time intercept of the elimination phase) / Cltot / VD / t1/2α / t1/2β / α / β: mouse
Experimental: Standard addition curves for each test compound were constructed by adding increased amounts of drug to mouse or human A^+ plasma (Long Island Blood Services; Melville, N.Y). […] The column was washed with 1.0 ml of water and then eluted with 1.0 ml of 10 mM tetramethylammonium chloride/10 mM heptane sulfonate/4.2 mM H3PO4/95% CH3CN/5% H2O (Buffer C). The eluted sample was reduced to dryness in a rotary evaporator and resuspended in 1.0 ml Buffer A.
Two hundred μl of the resuspended sample was injected onto a Hewlett-Packard model 1090 high performance liquid chromatography system (HPLC)(Wilmington, Del.) equipped with a photodiode array ultraviolet/visible spectrophotometric detector, autosampler, and Chemstation operating software. The column used was a 250×4.6 mm Zorbax RX-C8 column (Mac-Mod Analyticals; Chadd's Ford, Pa.) kept at room temperature and run at 1.5 ml/min. The mobile phase used was Buffer A and 10 mM tetramethylammonium chloride/10 mM heptane sulfonate/4.2 mM H3PO4/75% CH3CN/25% H2O (Buffer B), with all runs initiated at 10% Buffer B. A linear 30 min gradient to 60% Buffer B was then performed, followed by a 4 min reverse gradient to initial conditions.
Female ND4 Swiss Webster mice (21-24 g) were obtained from Harlan Sprague Dawley (Indianapolis, Ind.) and randomly placed in groups of five in cages with free access to food and water. […] The other CNI compounds were administered intraperitoneally or by oral gavage as a solution in water titrated with sufficient HCl to dissolve the drug. At various time points, ranging from 5 min to 4 days, a single group of animals was euthanized by carbon dioxide inhalation and bled by cardiac puncture using heparin as an anticoagulant. The blood from the five mice in the group was pooled and centrifuged at 14000× g for 10 min. The volume of plasma was measured, and equal volume of Buffer A added, and the mixture extracted and analyzed as described above, except that the dried eluates were resuspended in 200 μl Buffer A and 100 μl was injected onto the high performance liquid chromatography (HPLC) system.
The area under the plasma concentration-time curve (AUC) was determined, and bioavailability was measured as AUCoral/AUCi.p. A and B represent the zero time intercept of the distribution and elimination phases respectively, and a and β the respective slopes of the phases multiplied by 2.303. The t/2α and t1/2β are calculated half-lives of the drug in each phase (0.693/α and 0.693/β respectively). The volume of distribution (VD) was calculated as dose/B, and the total clearance rate (Cltot) calculated as β*VD. Cmax and tmax are the maximal plasma concentration and time of this measurement, respectively.

[2] = tested on: monocyte and T lymphocyte cultures; test: Cytotoxicity in monocyte and T lymphocyte cultures in vitro; format: cell-based
HIV-1 = test: Reverse transcription of HIV-1 in infected cells; format: cell-based
[3] = In vitro metabolism with mouse liver post-mitochondrial supernatant and NADPH; format: in vitro ADME
Experimental: Several female ND4 Swiss Webster mice were euthanized by carbon dioxide inhalation and the livers excised and rinsed with ice cold phosphate buffered saline (pH 7.4). The livers were minced, gently homogenized in 50 mM phosphate buffer (pH 7.4) with a Dounce homogenizer, and centrifuged at 9600× g for 20 min. The post-mitochondrial supernatant was kept, glycerol added to 20%, and frozen at −70° C in 1.0 ml aliquots until used. For each incubation, 1.0 ml of a 1.0 mg/ml drug solution was added to 3.0 ml of 50 mM phosphate buffer (pH 7.4), 1.0 ml of 2 mg/ml NADPH in 50 mM phosphate (pH 7.4), and 1.0 ml of the post-mitochondrial supernatant. Five hundred μl of each incubate was then immediately transferred to an ice-cold tube to provide the zero-time sample, and addition 500 μl aliquots removed to ice-cold tubes at 8, 15, 30, and 60 min. The samples were then extracted, and analyzed by HPLC as described in section 7.1. Control incubations were also performed where drug or post-10 mitochondrial supernatant was omitted. […] Peaks in the CNI compound incubations which increased over time, and were not present in control samples lacking the enzyme preparation were treated as putative metabolites.

Plasmodium berghei NYU-2 = test: Four day suppression test in Plasmodium berghei infected mice; format: in vivo; conditions: 50 mg/kg i.p. once daily for four days, P≦0.01
Experimental: FIG. 9. The activity of CNI-0294 against Plasmodium berghei infected mice. Female ND4 Swiss Webster mice were infected with infected erythrocytes and then treated once daily, for four days, with 50 mg/kg CNI-0294, or with distilled water. Six hours after the last dose, thin blood smears were made from each of the animals and the parasitemia was determined. The bars represent the median parasitemia (n=4 for controls and n=5 for treated).
The antimalarial activity of CNI-0294 in vivo was assessed by infecting female ND4 Swiss Webster mice with 100 μl of Plasmodium berghei NYU-2 infected mouse erythrocytes (50% parasitemia) by intraperitoneal injection. The animals were subsequently injected intraperitoneally once per day on days 1-4 of the infection with 0.5 ml water or 0.5 ml of 50 mg/kg CNI-0294 in water. Four hours after the final injection, small blood samples were taken from the tail, and thin smears stained with Dif-Quick (Baxter, Miami, Fla.). The parasitemia of control and treated animals was enumerated by inspection of at least 1000 erythrocytes in each animal.

[4] = Toxicity in mice, median lethal dose by intraperitoneal injection; format: in vivo, mouse
Experimental: The doses of compounds of the invention found to be lethal to 50% of the mice (LD50) were determined by intraperitoneal injection of groups of five animals with increasing doses of each compound. CNI-0294 was administered from 0, 2, 10, 20, 40, 80, 160, 320, 640, 1280 mg/kg in 0.5 ml of water/HCl; CNI-1594 at 0, 2.4, 5, 10, 20, 40, 80 mg/kg in 0.5 ml of water/HCl; CNI-1794 at 0, 20, 50, 80 mg/kg in 0.5 ml of water/HCl; and CNI-1894 at 0, 10, 20, 40, 80, 240, 480, 960 mg/kg in water/HCl. […] The percentage of animals in each group which died were utilized to calculate the LD50 by non-linear curve fitting with the Enzfit software (Elsevier Bioscience; Cambridge, UK) programmed with the Chou equation (Chou 1976, J Theor Biol 39:253-276)).

Plasmodium falciparum = test: Antimalarial activity in vitro, [3H]-hypoxanthine incorporation; format: cell-based; conditions: Plasmodium falciparum
Description: The antimalarial properties of the compounds of the invention can be analyzed by techniques, assays and experimental animal models well known in the art. For example, the inhibition of growth of Plasmodium falciparum in vitro by the compounds may be assessed by the hypoxanthine-incorporation method (Desjardins et al., 1979, Antimicrob. Ag. Chemother. 16:710-718). […] The in vivo efficacy of the compounds can also be tested in mouse models in which parasitemia is enumerated following administration of the compound (Ager, A. L. 1984, Rodent malaria models, pp 225-264. In Handbook of Experimental Pharmacology vol. 68, Antimalarial Drugs, Peters and Richards eds, Springer-Verlag, Berlin).
The antimalarial activity of the compounds was determined essentially as described in Desjardins et al. supra. Fifty μl of various concentrations of a compound of the invention, chloroquine, or pyrimethamine were added to the wells of microtiter plates, followed by 200 μl of ring-stage, synchronized, P. falciparum-infected erythrocytes (final hematocrit=1.5%, final parasitemia=1-5%). The plates were incubated for 24 hr in a candle jar kept at 37° C., and then 25 μl of [^3H]-hypoxanthine (Amersham, Arlington Heights, ILL.; 2.5 μl Ci/well) was added. The plates were then incubated for a further 24 hr, before harvesting onto Unifilter-96 GF/C filter-microplates (Packard; Meriden, Conn.). Twenty-five μl of Microscint scintillation fluid (Packard) was added to each well of the filter-microplate, which was subsequently counted in a Top-count microplate scintillation counter (Packard). The percent of [^3H]-hypoxanthine uptake relative to control infect-erythrocytes was used to determine the IC50 value for the compounds by non-linear regression for LD50 determination.

[5] = female, ND4 Swiss Webster, plasma, ip, 50 mg/kg, vehicle DMSO/peanut oil
[6] = female, ND4 Swiss Webster, plasma, ip, 50 mg/kg, vehicle water
[7] = female, ND4 Swiss Webster, plasma, po, 50 mg/kg, vehicle DMSO/peanut oil
[8] = i.p., 50 mg/kg, vehicle DMSO/peanut oil

With CC(=O)c1cc(Nc2cc(C)[n+](C)c(N)n2)cc(C(C)=O)c1.[I-] [Compound No. 2, 2-amino-4-(3,5-diacetylphenyl)amino-1,6-dimethylpyrimidinium iodide] the “inhibition of reverse transcriptase” value (HIV-1 RT; data not shown) was “does not inhibit reverse transcriptase” and the Dose ([1]; calculated from clearance for target serum conc. (No. 2: 10 nM; No. 11: 50 nM; No. 15: 15 nM)) was 6.80 mg/Kg day.

In the case of CC(=O)c1cc(Nc2cc(C)[n+](C)c(N)n2)cc(C(C)=O)c1 [CNI-0294, 2-Amino-4-(3,5-diacetylphenyl)amino-1,6-dimethylpyrimidinium chloride], the 50% toxic dose [2] is reported as over 1 mM, the “inhibition of reverse transcription of HIV-1 in infected cells” value (HIV-1) is reported as “did not significantly inhibit” and the “block of enzymatic activity of HIV-1 RT in vitro” value (HIV-1 RT; concentrations up to 50 μM) is reported as “nor did it block in concentrations up to 50 μM the enzymatic activity of HIV-1 RT in vitro”. The metabolites produced [3] was “three minor and one major metabolite”, the “metabolic conversion (drug altered, as judged by peak area)” value ([3]; 60 min incubation) was 43.5% and the lowering of parasitemia (Plasmodium berghei NYU-2) was 10 fold. It also gave an AUC [1, 5] of 9150 ng·h/mL, a Cmax [1, 5] of 18800 ng/mL and an AUC [1, 6] of 8830 ng·h/mL. The Cmax [1, 6] was 18900 ng/mL, the bioavailability ([1]; female, ND4 Swiss Webster, plasma, oral, mice, single 50 mg/kg dose, AUCoral against AUCi.p., read-out: relative bioavailability) was 6% and the AUC [1, 7] was 560 ng·h/mL. It also gave a Cmax [1, 7] of 410 ng/mL, a Tmax ([1]; female, ND4 Swiss Webster, plasma, ip, i.p., 50 mg/kg, vehicle DMSO/peanut oil, read-out: tmax (converted)) of 5 min and a bioavailability ([1]; female, ND4 Swiss Webster, plasma, oral, 50 mg/kg, vehicle DMSO/peanut oil, AUCoral/AUCi.p., read-out: Bioavailability) of 6%. The Tmax ([1]; female, ND4 Swiss Webster, plasma, oral, 50 mg/kg, vehicle DMSO/peanut oil, read-out: tmax (converted)) was 60 min, the maximal plasma level ([1]; mice, oral, single 50 mg/kg dose) was 0.4 µg/mL and the maximal plasma level ([1]; mice, single i.p. injection (50 mg/kg; CNI-1594 20 mg/kg)) was 18.76 µg/mL and 18.76 to 18.93 µg/mL. For the same compound, the “A (zero time intercept of the distribution phase)” value [1, 8] was 14.00 µg/mL, the “B (zero time intercept of the elimination phase)” value [1, 8] was 0.07 µg/mL and the Cltot [1, 8] was 35.35 mL/min. It also gave a VD [1, 8] of 14.14 L, a t1/2α [1, 8] of 37.2 min and a t1/2β [1, 8] of 277 min. For the same compound, the α [1, 8] was 1.12 h⁻¹, the β [1, 8] was 0.15 h⁻¹ and the “A (zero time intercept of the distribution phase)” value ([1]; i.p., 50 mg/kg, vehicle water) was 16.07 µg/mL. The “B (zero time intercept of the elimination phase)” value ([1]; i.p., 50 mg/kg, vehicle water) was 0.05 µg/mL, the Cltot ([1]; i.p., 50 mg/kg, vehicle water) was 62.70 mL/min and the Tmax ([1]; i.p., 50 mg/kg, vehicle water) was 5 min. It also gave a VD ([1]; i.p., 50 mg/kg, vehicle water) of 19.80 L, a t1/2α ([1]; i.p., 50 mg/kg, vehicle water) of 24 min and a t1/2β ([1]; i.p., 50 mg/kg, vehicle water) of 219 min. The α ([1]; i.p., 50 mg/kg, vehicle water) was 1.74 h⁻¹, the β ([1]; i.p., 50 mg/kg, vehicle water) was 0.19 h⁻¹ and the “visible signs of toxicity” value [4] was “no overt signs of toxicity detectable at doses approaching the LD50”. The “LD50 ± standard deviation” value ([4]; listed as CNI-H0294) was 590 mg/kg, the LD50 ([4]; mouse, in vivo, ip, read-out: LD50 ± standard deviation) was 588 mg/kg and the IC50 (Plasmodium falciparum; FCR3, clone FCR-3, ± standard deviation, read-out: IC50) was 3.09 ± 0.3 µM. For the same compound, the IC50 (Plasmodium falciparum; HB3, clone HB3, ± standard deviation, read-out: IC50) was 1.79 ± 0.27 µM, the IC50 (Plasmodium falciparum; clone D10, ± standard deviation, read-out: IC50) was 4 ± 0.41 µM and the IC50 (Plasmodium falciparum; series of cloned parasites with different sensitivities to chloroquine or pyrimethamine, read-out: median inhibitory concentration (IC50)) was 1.79 to 4 µM.
